Results on 10 molecules are retold here after patent US7030267B2, “Cycloproply β-amino acid derivatives” (Warner-Lambert Company, LLC, priority 2003, dated 2006).

Each structure is given as a SMILES string.

Take `CC1(C)CC1(CN)C(=O)O` (stereo not shown): the melting point fell in the range of 254 to 256 °C.

For the molecule `CCC(CC)C1CC1(CN)C(=O)O` (stereo not shown), the melting point lay within 255 to 257 °C.

Consider `NCC1(C(=O)O)CC1C1CCCCC1` (stereo not shown), for which the melting point is 270 °C (dec.).

Regarding `NCC1(C(=O)O)CC12CCCC2` (stereo not shown), the melting point was 231 to 235 °C (dec.).

Turning to `CC(C)C1CC1(CN)C(=O)O.Cl` (stereo not shown), the melting point fell in the range of 245 to 246 °C.

As to `CCCC1(CCC)CC1(CN)C(=O)O` (stereo not shown), the melting point is 255 to 257 °C.

With `Cl.NCC1(C(=O)O)CC12CCCCC2` (stereo not shown) [Example 1, 1-AMINOMETHYL-SPIRO[2.5]OCTANE-1-CARBOXYLIC ACID HYDROCHLORIDE], the melting point was > 250 °C (dec.).

Take `CC(C)CC1CC1(CN)C(=O)O.Cl` (stereo not shown) [Example 6, 1-AMINOMETHYL-2-ISOBUTYL-CYCLOPROPANECARBOXYLIC ACID HYDROCHLORIDE]: the melting point was > 220 °C (dec.).

`Cl.NCC1(C(=O)O)CC12CCCCC2` (stereo not shown) [Example 14] registered a melting point of 240 to 242 °C.

As for `CC(C)CC1CC1(CN)C(=O)O.Cl` (stereo not shown) [Example 15], the melting point lay in the range of 254 to 255 °C.

As usually defined, the melting point is the temperature of the solid-liquid transition.
